Earlier results in PMC10973027 (Molecular Imaging and Biology, 2023).

Design: method as in PMID 35959805
Settings: UP0030 study participants, 2 h post dose; cited from earlier work

SMILES: CCCC[C@H](Cc1c[nH]c2ccccc12)NC(=O)c1cnc(N2CC[N+](C)([O-])CC2)s1 [N-oxide]
- concentration in CSF, times lower than the parent minzasolmin concentration: ~ 20 times
